Laboratory results as given in patent US11732008B2, “Preparation of functional homocysteine residues in polypeptides and peptides” (The Regents of the University of California, priority 2016, dated 2023).
Blank lines part the entries; values can stand above or below the substance they belong to.

Tests used:
[1] = Chain conformation / helicity by circular dichroism (CD) spectroscopy; type: physicochemical; details: 20° C.
Description: For M60 (SEQ ID NO: 1), no data are presented below 204 nm due to solvent absorption that prohibits data collection. 31 found to be 85% α-helical. All CD spectra recorded at 0.5 mg/ml, 20° C. Figure discloses “C^H60” as SEQ ID NO: 2.
(§1) FIGS. 7A and 7B show CD Spectra and heating curves of exemplary OEG-Hcy derivatives.
Heating or cooling rate: 1° C./min, transmittance recorded at 500 nm. […] (label: 20° C.*).
All data were recorded in H2O at 0.5 mg/mL, 20° C. For 5b no data were recorded below 198 nm due to sulfoxide absorption.

[2] = Cloud point temperature (Tcp) by transmittance while heating; type: physicochemical; details: for Tcp (° C.): polymer 3.0 mg/mL in H2O, heated 1° C./min, temperature of 50% transmittance at 500 nm, —a = no Tcp detected, fully soluble 20 to 80° C., NA^b = insoluble in H2O down to 5° C.
Description: as §1
The incorporation of precise side-chain structural modifications, enabled systematic study of the effects of different functionalities on the properties of the materials. […] Cloud point temperatures (Tcp) were determined at 50% transmittance by monitoring solution transmittance as a function of temperature, and were used to approximate the equilibrium LCST values. Since chain length variation and polymer concentration are well known to affect Tcp values, all samples were identical in length, being prepared from the same stock of M60 (SEQ ID NO: 1).

Substance: Poly(L-methionine)60 [Sample M60, reference compound]
chain conformation ([1]; CD in THF, 0.5 mg/ml): helical | water solubility (in words) (Solubility in water): water-insoluble

Tcp (° C.) [2]: 41 °C
Substance: Poly(S-(2-(((2-methoxyethoxy)carbonyl)oxy)-4,7,10,13-tetraoxatetradecyl)-L-homocysteine) [Sample 3b]

Substance: Poly(S-(2-acetoxy-4,7,10,13-tetraoxatetradecyl)-L-homocysteine) [Sample 3a]
Tcp (° C.) [2]: 39 °C

Tcp / LCST in water, present or not [2]: neither polymer has a LCST | chain conformation ([1]; CD in water, 0.5 mg/mL): α-helical conformation | α-helical (%) ([1]; CD in water, 0.5 mg/mL): 86% | water solubility (in words) (Solubility in water): good solubility
Substance: Poly(S-(2-hydroxy-4,7-dioxaoctyl)-L-homocysteine sulfone) [Sample 5b]

Tcp / LCST in water, present or not [2]: neither polymer has a LCST | chain conformation ([1]; CD in water, 0.5 mg/mL): disordered conformation | water solubility (in words) (Solubility in water): good solubility
Substance: Poly(S-(2-hydroxy-4,7-dioxaoctyl)-L-homocysteine sulfoxide) [Sample 5a]

Substance: Poly(S-(3-(2-acetoxyethoxy)-2-hydroxypropyl)-L-homocysteine) [Sample 2c]
water solubility (in words) (Solubility in water): water insoluble

Substance: Poly(S-(3-(2-hydroxyethoxy)-2-hydroxypropyl)-L-homocysteine) [Sample 2a]
water solubility (in words) (Solubility in water): fully water soluble

Substance: Poly(S-(3-(2-methoxyethoxy)-2-hydroxypropyl)-DL-homocysteine) [rac-2b]
water solubility (in words) (Solubility in water): fully water soluble
